Assay results reported in publication PMC5622733, “Polymethoxyflavones: Novel β-Secretase (BACE1) Inhibitors from Citrus Peels” (Nutrients, 2017).

Experiments:
[1] = cited from earlier work
[2] = tested on: ERK and CREB signaling pathways; details: cited from earlier work
[3] = tested on: inducible nitric oxide synthase (iNOS), cyclooxygenase-2 (COX-2); details: cited from earlier work
[4] = molecular target: T1, BACE1 (Homo sapiens, UniProt P56817); assay: FRET-based BACE1 inhibition assay; format: biochemical; details: FRET substrate Rh-[…]-Quencher
T1 construct: purchased Invitrogen (Pan Vera, Madison, WI, USA)
Protocol: (§1) BACE1 inhibition was determined by enzymatic assay using the fluorescent resonance energy transfer (FRET)-based BACE1 kit from Invitrogen (Pan Vera, Madison, WI, USA). α-Secretase (tumor necrosis factor-α converting enzyme, TACE) and substrate were obtained from R&D Systems (Minneapolis, MN, USA). Trypsin, chymotrypsin, elastase, and their substrates were obtained from Sigma-Aldrich (St. Louis, MO, USA). The measurement of fluorescence and optical density was performed with a BioTEK ELISA microplate fluorescence reader FLx 800 and BioTEK ELx 808 (Winooski, VT, USA), respectively.
(§2) BACE1, TACE, chymotrypsin, trypsin and elastase assays were performed according to previous methods. Fluorometric BACE1 and TACE assay were measured using a Rh-[…]-Quencher and Mca-PLAQAV-Dpa-RSSSR-NH2 as substrates. Trypsin, chymotrypsin, and elastase were assayed according to the manual described in the reference using N-benzoyl-L-Arg-pNA, N-benzoyl-L-Tyr-pNA, and N-succinyl-Ala-Ala-Ala-pNA as substrates, respectively.

[5] = tested on: olfactory bulbectomy-induced memory impairment; details: administration for 11 days; cited from earlier work
[6] = tested on: 3XTg-AD mice; details: cited from earlier work
[7] = molecular target: T1, BACE1; assay: BACE1 inhibition kinetics (Dixon and Lineweaver–Burk plots); format: biochemical; details: for Type of inhibition: Dixon and Lineweaver–Burk plots; for Ki: substrate 250-750 nM, read-out: Ki calculated from the Dixon plots
Protocol: The kinetic mechanisms of the different samples towards BACE1 were determined by the graphical views of Dixon and Lineweaver–Burk plots. The inhibitory constants (Ki) value was defined by interpretation of the Dixon plot, where the value of the x-axis implies -Ki. […] The kinetic parameters were then calculated using Enzyme Kinetic^TM module of SigmaPlot^TM version 12.3 (Systat Software, Inc., San Jose, CA, USA).

[8] = tested on: P-glycoprotein (P-gp); design: method as in PMID 11098080, PMID 17348674; details: adriamycin-resistant human myelogenous leukemia cells and Caco-2 cells, talinolol as probe; cited from earlier work
[9] = molecular target: T2, α-secretase (tumor necrosis factor-α converting enzyme, TACE) (Homo sapiens, UniProt P78536); assay: TACE (α-secretase) fluorometric assay; format: biochemical; details: read-out: Inhibitory activity (%) against TACE
T2 construct: purchased R&D Systems (Minneapolis, MN, USA)
Protocol: as §1, §2

[10] = molecular target: T3, Chymotrypsin (Bos taurus, UniProt P00766); assay: Chymotrypsin assay; format: biochemical; details: read-out: Inhibitory activity (%) against Chymotrypsin
T3 construct: purchased Sigma-Aldrich (St. Louis, MO, USA)
Protocol: as §1, §2

[11] = molecular target: T4, Elastase (Sus scrofa, UniProt P00772); assay: Elastase assay; format: biochemical; details: read-out: Inhibitory activity (%) against Elastase
T4 construct: purchased Sigma-Aldrich (St. Louis, MO, USA)
Protocol: as §1, §2

[12] = tested on: Trypsin; assay: Trypsin assay; format: biochemical
Protocol: as §1, §2

[13] = tested on: APP-SL 7-5 Tg mice; details: daily from 4 to 9 months of age; cited from earlier work
[14] = cited from earlier work; remark: listed apart in the source
[15] = tested on: cyclic AMP response element-mediated transcription; design: method as in PMID 23588349; details: rat hippocampal neurons; cited from earlier work
[16] = tested on: primary rat microglia and BV-2 microglial cell; details: LPS-induced; cited from earlier work
[17] = tested on: 6-OHDA-lesioned rats; details: 20 mg/kg/day for 4 days before 6-OHDA injection; cited from earlier work
[18] = rats, up to 1000 to 3000 mg/kg bw; cited from earlier work
[19] = chronic oral administration; cited from earlier work

T2 sequence (P78536 215-824): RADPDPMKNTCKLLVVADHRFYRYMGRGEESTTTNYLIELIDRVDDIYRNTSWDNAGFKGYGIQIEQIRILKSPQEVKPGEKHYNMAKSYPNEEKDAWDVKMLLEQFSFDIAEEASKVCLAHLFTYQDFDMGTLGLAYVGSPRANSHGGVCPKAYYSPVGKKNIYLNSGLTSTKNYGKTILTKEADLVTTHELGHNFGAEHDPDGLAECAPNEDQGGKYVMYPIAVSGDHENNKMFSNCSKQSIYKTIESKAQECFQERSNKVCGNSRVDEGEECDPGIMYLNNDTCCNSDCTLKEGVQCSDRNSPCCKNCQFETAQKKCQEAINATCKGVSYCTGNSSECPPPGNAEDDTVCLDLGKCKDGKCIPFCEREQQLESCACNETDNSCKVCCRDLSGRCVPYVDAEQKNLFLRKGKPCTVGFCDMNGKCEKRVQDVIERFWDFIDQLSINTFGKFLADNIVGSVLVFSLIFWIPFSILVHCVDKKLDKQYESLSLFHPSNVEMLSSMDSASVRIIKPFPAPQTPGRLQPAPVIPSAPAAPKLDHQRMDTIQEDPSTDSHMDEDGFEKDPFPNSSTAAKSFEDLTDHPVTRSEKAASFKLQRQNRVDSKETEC
T1 sequence (P56817 46-501): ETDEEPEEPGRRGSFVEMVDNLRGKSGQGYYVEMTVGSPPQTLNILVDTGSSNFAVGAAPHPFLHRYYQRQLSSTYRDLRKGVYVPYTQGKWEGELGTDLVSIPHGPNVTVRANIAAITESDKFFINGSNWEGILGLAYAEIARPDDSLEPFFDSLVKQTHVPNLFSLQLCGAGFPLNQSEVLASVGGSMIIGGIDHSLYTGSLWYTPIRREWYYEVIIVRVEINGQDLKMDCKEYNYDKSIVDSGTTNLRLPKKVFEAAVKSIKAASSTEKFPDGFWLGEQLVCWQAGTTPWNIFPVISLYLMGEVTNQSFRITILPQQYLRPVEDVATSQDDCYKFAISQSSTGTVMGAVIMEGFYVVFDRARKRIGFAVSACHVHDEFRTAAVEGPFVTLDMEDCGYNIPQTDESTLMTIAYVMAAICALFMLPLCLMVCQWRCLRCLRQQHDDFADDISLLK
T4 sequence (P00772 27-266): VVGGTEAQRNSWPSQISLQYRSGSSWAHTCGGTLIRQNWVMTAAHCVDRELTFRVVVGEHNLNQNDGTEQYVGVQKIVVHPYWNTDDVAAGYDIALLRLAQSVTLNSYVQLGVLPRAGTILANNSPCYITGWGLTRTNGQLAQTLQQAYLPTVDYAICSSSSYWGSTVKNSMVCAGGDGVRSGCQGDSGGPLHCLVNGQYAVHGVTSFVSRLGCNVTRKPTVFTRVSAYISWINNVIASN

IC50 [4] | Type of inhibition [7] | Ki [7] | inhibition at 50 µM [10] | inhibition at 100 µM [10] | inhibition at 50 µM [11] | inhibition at 100 µM [11] | SMILES | Suppression of gene expression of iNOS and COX-2 relative to parent compound [3] | P-gp inhibition [8] | inhibition at 50 µM [9] | inhibition at 100 µM [9] | Inhibitory activity (%) against Trypsin ([12]; 50 μM) | Inhibitory activity (%) against Trypsin ([12]; 100 μM) | other results
 |  |  |  |  |  |  | COc1cc(-c2cc(=O)c3c(OC)c(OC)c(OC)c(OC)c3o2)ccc1O [4′-DMN] | more efficiently suppressed |  |  |  |  |  | Ability to cross the blood–brain barrier (BBB) [1]: able to cross the blood–brain barrier (BBB); Phosphorylation of ERK and CREB [2]: stimulate phosphorylation
59 µM | noncompetitive | 34 µM | 1.39 ± 0.17% | 1.77 ± 0.06% | 5.51 ± 1.17% | 4.49 ± 1% | COc1ccc(-c2cc(=O)c3c(OC)c(OC)c(OC)c(OC)c3o2)cc1OC [Nobiletin, 5,6,7,8,3′,4′-hexamethoxyflavone] |  | inhibitory potential with P-gp | 5.49 ± 0.34% | 11.6 ± 3.07% | 1.00 ± 0.07% | 0.92 ± 0.06% | Memory impairment [5]: significantly recovered; Soluble Aβ1-40 and ROS levels in brain and hippocampus [6]: reduced the levels; Aβ1-42 and Aβ1-40 in the brain [13]: reduced quantity; Memory impairment, context-dependent fear conditioning test [13]: significantly reversed memory impairment; Content in the brain ([14]; mice, oral 50 mg/kg): 3.6 mg/kg; Content in the brain (molar) ([14]; mice, oral 50 mg/kg): approximately 8.9 µM; Accumulation in the brain versus liver ([14]; oral administration): much higher than that in the liver
 |  |  |  |  |  |  | COc1c(OC)c(OC)c2c(=O)cc(-c3ccc(O)c(O)c3)oc2c1OC [3′,4′-di-DMN] | more efficiently suppressed |  |  |  |  |  | 
63 µM | noncompetitive | 38 µM | 9.08 ± 0.48% | 8.78 ± 0.8% | 7.4 ± 2.09% | 11.4 ± 1.38% | COc1ccc(-c2cc(=O)c3c(OC)c(OC)c(OC)cc3o2)cc1OC [Sinensetin, 5,6,7,3′,4′-pentamethoxyflavone] |  |  | 7.88 ± 1.12% | 7.19 ± 1.35% | 5.16 ± 0.69% | 4.70 ± 0.58% | CRE-mediated transcription [15]: activate
 |  |  |  |  |  |  | COc1ccc(-c2cc(=O)c3c(OC)c(OC)c(OC)c(OC)c3o2)cc1O [3′-DMN] |  |  |  |  |  |  | iNOS inhibition relative to nobiletin [3]: more efficiently than nobiletin

SMILES | IC50 [4] | Type of inhibition [7] | Ki [7] | inhibition at 50 µM [10] | inhibition at 100 µM [10] | inhibition at 50 µM [11] | inhibition at 100 µM [11] | Suppression of gene expression of iNOS and COX-2 relative to parent compound [3] | P-gp inhibition [8] | inhibition at 50 µM [9] | inhibition at 100 µM [9] | Inhibitory activity (%) against Trypsin ([12]; 50 μM) | Inhibitory activity (%) against Trypsin ([12]; 100 μM) | other results
COc1ccc(-c2cc(=O)c3c(OC)c(OC)c(OC)c(OC)c3o2)cc1 [Tangeretin, 5,6,7,8,4′-pentamethoxyflavo-ne] | 49 µM | noncompetitive | 37 µM | 5.68 ± 0.86% | 6.16 ± 0.38% | 8.64 ± 0.65% | 10.6 ± 1.09% |  | inhibitory potential with P-gp | 8 ± 1% | 11.3 ± 1.66% | 8.10 ± 0.99% | 11.80 ± 1.04% | Microglial cell activation [16]: suppressed; Loss of TH+ cells and striatal dopamine content [17]: markedly reduced the loss; Death and clinical chemistry in oral acute and sub-acute study [18]: no evidence of death nor significant change of clinical chemistry; Detection in the hippocampus [19]: detected in the hippocampus
